Measured values: patent publication US11571418B2, “Platinum compounds that inhibit constitutive STAT3 signaling and induce cell cycle arrest and apoptosis of malignant cells” (H. LEE MOFFITT CANCER CENTER AND RESEARCH INSTITUTE, INC., priority 2011, dated 2023)

Key:
[1] = target: T1, E2F1 (Homo sapiens, UniProt Q01094); assay: In vitro E2F1 DNA-binding activity assay, EMSA with DHFR promoter probe; conditions: cell lysates pre-incubated with compound before DHFR promoter probe
T1 construct: made in house; host or cells: Sf-9 insect cells infected with baculovirus
Experimental: FIGS. 1A-1E. Inhibition of in vitro Stat3 DNA-binding activity by a platinum complex. Nuclear extracts or cell lysates containing activated Stat1, Stat3 and Stat5, or E2F1 prepared from NIH3T3/hEGFR that are stimulated with EGF or Sf-9 insect cells that are infected with baculovirus expressing Stat1, Stat3, Stat5, or E2F1, respectively, were treated with or without the indicated concentrations of platinum complex, PLATINUM-401 or Cisplatin, for 30 min at room temperature prior to incubation with radiolabeled oligonucleotide probes, and subjected to EMSA analysis. (FIG. 1A) (i) Stat1 and Stat3 binding activities to hSIE probe, (ii) Stat1 and Stat5 binding activities to MGFe probe, and (iii) plot of % oligonucleotide probe-STAT:STAT complexes versus concentration of PLATINUM-401. […] Positions of STAT: STAT-DNA complexes in gel are labeled. In (A) to (C), the control lanes represent DMSO (vehicle)-treatment.
In control studies, the effect of PLATINUM-401 was evaluated on the DNA-binding activity of the E2F1 protein that is unrelated to STATs.

[2] = tested on: 5TGM1; assay: TUNEL analysis of apoptosis; assay type: cell-based, mouse; conditions: 48 h
Description: (§1) FIGS. 7A-7C. TUNEL analysis of PLATINUM-401-mediated apoptosis. (FIG. 7A) Normal NIH3T3 fibroblasts and their v-Src-transformed counterparts (NIH3T3/v-Src), human breast carcinoma cell lines (MDA-MB-453, MDA-MB-435, MDA-MB-468, and MDA-MB-231), human non-small cell lung cancer cell line (A549), human prostate cancer cell line (DU145), multiple myeloma 5TGM1 (mouse) and U266 (human) cell lines, mouse melanoma cell line (B16) and human pancreatic cancer cell line (Panc1) were all treated with or without PLATINUM-401 for 48 h and analyzed by TUNEL for DNA damage. For each cell line, the activated Stat3 status is indicated as (−), no constitutively-active Stat3 and (+), constitutively-active Stat3 (see FIG. 5A). Data are representative of 3 independent determinations; (FIG. 7B) Human breast cancer cell lines (MDA-MB-453, MDA-MB-468 and MDA-MB-435) were transfected with or without Stat3β or Stat3 antisense (Stat3AS), or were treated with or without Stat3 peptidomimetic inhibitor, ISS 610 (1 mM) or PLATINUM-401 (5 μM)). Forty-eight hours afterwards, cells were harvested and processed for TUNEL analysis; (FIG. 7C) The viral Src-transformed NIH3T3/v-Src fibroblasts were transfected with or without wild-type Stat3 (pRc/CMV Stat3 Flag) and treated with or without 5 μM PLATINUM-401 for 36 h. Cells were subsequently harvested for nuclear extracts preparation and Stat3 DNA-binding assay in vitro with EMSA analysis (left panel), or were processed for TUNEL analysis (right panel).
(§2) Cell proliferation and TUNEL assays—Proliferating cells were first treated with or without PLATINUM-401 for up to 48 h. A portion of cells were harvested for BrdU incorporation following the manufacturer's (BD Biosciences Pharmingen, San Diego, Calif.) instructions and analyzed by flow cytometry. Harvested cells were also analyzed for apoptosis via detection of TdT-mediated dUTP nick-end labeling (TUNEL) assay using Apoptosis Detection Systems Fluorescein according to the manufacturer's (Roche, Indianapolis, Ind.) instructions. Oligonucleotides and plasmids Transfections. The Stat3 antisense (5′-[…]-3′) (SEQ ID NO:3) or control mismatch oligonucleotides (5′-[…]-3′) (SEQ ID NO:4) were synthesized using phosphorothioate chemistry and were synthesized with 2′-Omethoxyethyl modification of the five terminal nucleotides (underlined; (Mora et al., 2002; Karras et al., 2000)) to increase stability. Transfections of Stat3AS and plasmids were carried out with Lipofectamine 2000 (LF) according to the manufacturer's instructions (Invitrogen, Carlsbad, Calif.). Briefly, cells were seeded at 1-2×10^6 cells/10-cm tissue-culture plates 18 h before transfection. Immediately before transfection, cells were washed once with PBS. Cells were transfected with luciferase reporters (4 μg) in the presence or absence of v-Src (4 μg), or were transfected with Stat3β (4 μg) or pRC/CMV Stat3 Flag (4 μg). Stat3AS transfections were carried out LF alone, or with LF/Stat3 antisense oligonucleotides, or LF/Stat3 mismatch oligonucleotides (final concentration of the oligonucleotides was 250 nM). After 2-3 h, the transfection medium was aspirated and cells washed with PBS before fresh medium added containing 10% FBS was added.
(§3) Cells were analyzed for DNA-strand breaks by TUNEL staining. […] The incidence of apoptosis correlated with the prevalence of constitutively-active Stat3 in malignant cells (FIG. 7, lower panel). […]

[3] = tested on: B16; assay: TUNEL analysis of apoptosis; assay type: cell-based, mouse; conditions: 48 h
Description: as §1, §2, §3

[4] = tested on: NIH3T3/v-Src; assay: TUNEL analysis of apoptosis; assay type: cell-based, mouse
Description: as §1, §2, §3

[5] = tested on: NIH3T3; assay: TUNEL analysis of apoptosis; assay type: cell-based, mouse; conditions: 48 h, no aberrant Stat3 activity
Description: as §1, §2, §3

T1 sequence (Q01094 whole entry, species assumed): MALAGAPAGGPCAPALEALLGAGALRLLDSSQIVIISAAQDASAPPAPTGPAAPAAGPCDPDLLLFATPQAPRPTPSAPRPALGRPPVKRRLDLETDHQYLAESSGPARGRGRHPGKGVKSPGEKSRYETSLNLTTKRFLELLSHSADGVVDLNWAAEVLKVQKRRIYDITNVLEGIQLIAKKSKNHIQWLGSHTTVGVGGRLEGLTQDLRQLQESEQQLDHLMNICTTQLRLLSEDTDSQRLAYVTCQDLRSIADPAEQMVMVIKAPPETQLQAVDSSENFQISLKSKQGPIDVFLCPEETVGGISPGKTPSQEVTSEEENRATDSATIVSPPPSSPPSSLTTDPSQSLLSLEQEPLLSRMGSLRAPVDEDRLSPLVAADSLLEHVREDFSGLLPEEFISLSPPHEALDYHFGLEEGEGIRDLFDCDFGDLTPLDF

`CC(O)CN1CCN(CC(C)O)CC1` (stereo not drawn) [PLATINUM-401] was tested, and the “effect on E2F1 DNA-binding activity” value [1] was “no significant effect”, the TUNEL staining [2] was “Significant TUNEL staining” and the TUNEL staining [3] was “Significant TUNEL staining”. The TUNEL staining ([4]; 48 h) was “Significant TUNEL staining”, the “compound-mediated apoptosis on overexpression of Stat3” value ([4]; NIH3T3/v-Src transfected with wild-type Stat3, 5 μM, 36 h) was “minimizes the extent” and the TUNEL staining [5] was “no TUNEL staining”.
